Counter-ions that a name gives are not always drawn.
Row | melting point | Structure (SMILES)
1 | 163 to 167 °C | Cc1cccc(N2CCN(CCn3cnc4sc5c(c4c3=O)CCN(C)C5)CC2)c1C [Example 44, 3,4,5,6,7,8-Hexahydro-7-methyl-3-[2-(4-(2,3-dimethylphenyl)-piperazin-1-yl)ethyl]pyrido[4′,3′:4,5]thieno[2,3-d]pyrimidin-4-one]
2 | 149 °C | CCOC(=O)N1Cc2sc3ncn(CCN4CCN(c5cccc6c5CCC6)CC4)c(=O)c3c2C1 [Example 44, 3,4,5,7-Tetrahydro-6-carboethoxy-3-[2-(4-indan-4-ylpiperazin-1-yl)ethyl]pyrrolo[3′,4′:4,5]thieno[2,3-d]pyrimidin-4-one]
3 | 101 to 102 °C | CN1CCc2c(sc3ncn(CCN4CCN(c5cc(C(F)(F)F)ccn5)CC4)c(=O)c23)C1 [Example 141, 3,4,5,6,7,8-Hexahydro-7-methyl-3-[2-(4-(4-trifluoromethylpyridin-2-yl)piperazin-1-yl)ethyl]pyrido[4′,3′:4,5]thieno-[2,3-d]pyrimidin-4-one]
4 | 112 to 114 °C (dec.) | CN1CCc2c(sc3ncn(CCN4CCN(c5ncccn5)CC4)c(=N)c23)C1 (as salt: tartrate) [Example 20, 3,4,5,6,7,8-Hexahydro-7-methyl-3-[2-(4-pyrimidin-2-yl-piperazin-1-yl)ethyl]pyrido[4′,3′:4,5]thieno[2,3-d]-pyrimidin-4-imine]

More lines, now with the values behind:

Row | Structure (SMILES) | melting point
5 | CN1CCc2c(sc3ncn(CCCN4CCN(c5ccccc5O)CC4)c(=N)c23)C1 [Example 29, 3,4,5,6,7,8-Hexahydro-7-methyl-3-[3-(4-(2-hydroxyphenyl)-piperazin-1-yl)propyl]pyrido[4′,3′:4,5]thieno[2,3-d]-pyrimidin-4-imine] | 164 to 166 °C
6 | CCN1CCc2sc3ncn(CCN4CCN(c5ccccc5Cl)CC4)c(=O)c3c2C1 [Example 5, 3,4,5,6,7,8-Hexahydro-6-ethyl-3-[2-(4-(2-chlorophenyl)-piperazin-1-yl)ethyl]pyrido[3′,4′:4,5]thieno[2,3-d]-pyrimidin-4-one] | 148 to 150 °C
7 | Cc1c(C(=O)N(C)C)sc2ncn(CCN3CCN(c4cccc5ccccc45)CC3)c(=O)c12 [Example 3, 3,4-Dihydro-5-methyl-6-dimethylcarbamoyl-3-[2-(4-(1-naphthyl)piperazin-1-yl)ethyl]thieno[2,3-d]pyrimidin-4-one] | 190 to 191 °C
8 | CN1CCc2c(sc3ncn(CCCN4CCN(c5ccccc5C#N)CC4)c(=N)c23)C1 [Example 37, 3,4,5,6,7,8-Hexahydro-7-methyl-3-[3-(4-(2-cyanophenyl)-piperazin-1-yl)propyl]pyrido[4′,3′:4,5]thieno[2,3-d]-pyrimidin-4-imine] | 148 to 150 °C
9 | Cc1ccc2ccccc2c1N1CCN(CCn2cnc3sc(C(=O)N(C)C)c(C)c3c2=O)CC1 [Example 4, 3,4-Dihydro-5-methyl-6-dimethylcarbamoyl-3-[2-(4-(2-methyl-1-naphthyl)piperazin-1-yl)ethyl]-thieno[2,3-d]pyrimidin-4-one] | 178 to 180 °C
10 | CCOC(=O)N1Cc2sc3ncn(CCN4CCN(c5ncccn5)CC4)c(=O)c3c2C1 [Example 11, 3,4,5,7-Tetrahydro-6-carboethoxy-3-[2-(4-pyrimidin-2-yl-piperazin-1-yl)ethyl]pyrrolo[3′,4′:4,5]thieno[2,3-d]-pyrimidin-4-one] | 166 °C
11 | N=c1c2c3c(sc2ncn1CCN1CCN(c2ccccc2)CC1)CN(Cc1ccccc1)CC3 [Example 17, 3,4,5,6,7,8-Hexahydro-7-benzyl-3-[2-(4-phenylpiperazin-1-yl)-ethyl]pyrido[4′,3′:4,5]thieno[2,3-d]pyrimidin-4-imine] | 168 to 170 °C
12 | Cc1c(C(=O)N(C)C)sc2ncn(CCN3CCN(c4ccccc4C#N)CC3)c(=O)c12 (as salt: hydrochloride) [Example 15, 3,4-Dihydro-5-methyl-6-dimethylcarbamoyl-3-[2-(4-(2-cyanophenyl)piperazin-1-yl)ethyl]thieno[2,3-d]pyrimidin-4-one] | 210 °C
13 | CN1CCc2c(sc3ncn(CCN4CCN(c5ccccc5C#N)CC4)c(=O)c23)C1 [Example 68, 3,4,5,6,7,8-Hexahydro-7-methyl-3-[2-(4-(2-cyanophenyl)-piperazin-1-yl)ethyl]pyrido[4′,3′:4,5]thieno[2,3-d]-pyrimidin-4-one] | 162 to 164 °C

— patent publication US6387912B1, “Utilization of pyrimidine derivatives for preventing and treating cerebral ischaemia” (BASF Aktiengesellschaft, priority 1999, dated 2002)
